In PubChem BioAssay (NCI):
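All cell lines were grown in 96-well plates and treated with compound for 48 hours. TGI: concentration producing complete growth inhibition.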

How the values were obtained:
Assay in all cases: inhibition of tumour cell growth, NCI panel, 48 h
COLO 205 colon = system: COLO 205 colon
DU-145 prostate = system: DU-145 prostate
EKVX NSCLC = system: EKVX NSCLC
HS 578T breast = system: HS 578T breast
NCI-H23 lung = system: NCI-H23 lung
NCI-H522 lung = system: NCI-H522 lung
RXF 393 renal = system: RXF 393 renal
SF-268 CNS = system: SF-268 CNS
SK-MEL-2 melanoma = system: SK-MEL-2 melanoma
UACC-257 melanoma = system: UACC-257 melanoma
SF-539 CNS = system: SF-539 CNS
SNB-75 CNS = system: SNB-75 CNS

| Compound | TGI (COLO 205 colon) | TGI (DU-145 prostate) | TGI (EKVX NSCLC) | TGI (HS 578T breast) | TGI (NCI-H23 lung) | TGI (NCI-H522 lung) | TGI (RXF 393 renal) | TGI (SF-268 CNS) | TGI (SK-MEL-2 melanoma) | TGI (UACC-257 melanoma) | TGI (SF-539 CNS) | TGI (SNB-75 CNS) |
| --- | --- | --- | --- | --- | --- | --- | --- | --- | --- | --- | --- | --- |
| CC(C)CC1c2[nH]c3ccccc3c2C[C@H]2C(=O)NC(CCC(=O)OC(C)(C)C)C(=O)N12 (some centres undefined) | 39.6 µM | > 100 µM | > 100 µM | 54.2 µM | > 100 µM | 88.1 µM | 72 µM | > 100 µM | 43.8 µM | 66 µM |  |  |
| CC1OC(O[C@H]2CC[C@]3(C)[C@H]4CC=C5[C@@H]6[C@@H](C)[C@H](C)CC[C@]6(C(=O)O)CC[C@@]5(C(=O)O)[C@]4(C)CC[C@H]3C2(C)C)C(O)C(O)C1O (some centres undefined) | > 75 µM | > 75 µM |  | > 75 µM | > 75 µM | > 75 µM | > 75 µM | > 75 µM | > 75 µM | > 75 µM | > 75 µM | > 75 µM |
| [N-]=[N+]=Nc1ccc2c(c1)Sc1ccccc1N2CCCCCl | 82.3 µM | > 100 µM | > 100 µM | > 100 µM | > 100 µM | > 100 µM | > 100 µM | > 100 µM | 76.9 µM | > 100 µM | > 100 µM | > 100 µM |
| COc1cc(-c2coc3c(OC)c(OC4OC(CO)C(O)C(O)C4O)c(OC)cc3c2=O)cc(OC)c1C (centres undefined) | > 54.2 µM | 26.8 µM | 27.3 µM | 15.4 µM | 14.1 µM | 11.1 µM | 8.85 µM | 21.5 µM | 41.1 µM | > 31.6 µM | > 29 µM | 21.6 µM |
| CN(C)CCO/N=C1/C=C2CC[C@H]3[C@@H]4CC[C@H](O)[C@@]4(C)CC[C@@H]3[C@@]2(C)CC1 | 34.9 µM | 45.9 µM | 68.6 µM | 54.1 µM | 33.6 µM | 13.7 µM | 27.7 µM | 31.6 µM | 37.4 µM | 30.2 µM | 13.2 µM | 10.4 µM |
| COC1OC(CO)C(O)C(OC(=O)c2cc(O)c(O)c(O)c2)C1OC(=O)c1cc(O)c(O)c(O)c1 (centres undefined) | > 100 µM | > 100 µM | > 100 µM | > 100 µM | > 100 µM | > 100 µM | > 100 µM | > 100 µM | > 100 µM | > 100 µM | > 100 µM | > 100 µM |
| CCOC(=O)n1cncc1CC(NC(=O)Cc1c(C(=O)C=C(C)C)[nH]c2ccccc12)C(=O)OC (centres undefined) | 41 µM | 35.9 µM | 33.9 µM | 65.9 µM | 68.2 µM | 15.2 µM | 28.5 µM | 37.4 µM | 34.2 µM | 28.2 µM | 46.2 µM | 49.7 µM |
| N=C1C(=N)c2ccccc2-c2ccccc21 | 3.24 µM | 2.82 µM | 3.62 µM | > 26.1 µM | 1.92 µM | 3.99 µM | 3.23 µM | 4.16 µM | 2.97 µM | 1.46 µM | 2.02 µM | 3.25 µM |
| COC(=O)[C@H](Cc1ccccc1)NC(=O)N1CCN(C(=O)N[C@@H](Cc2ccccc2)C(=O)OC)CCN(C(=O)N[C@@H](Cc2ccccc2)C(=O)OC)CC1 | > 100 µM | > 100 µM | > 100 µM | > 100 µM | > 100 µM | > 100 µM | > 100 µM | > 100 µM | > 100 µM | > 100 µM |  | > 100 µM |
| COC(=O)C1(O)c2ccccc2N=C2C(=O)c3ccccc3N21 (centres undefined) | > 100 µM | > 100 µM | > 100 µM | > 100 µM | > 100 µM | > 100 µM | > 100 µM | > 100 µM | > 100 µM | > 100 µM | > 100 µM | > 100 µM |
| CC1N(C)C(=O)OC12CCN(CCCC(=O)c1ccc(F)cc1)CC2 (centres undefined) | > 100 µM | > 100 µM |  | > 100 µM | > 100 µM | > 100 µM | > 100 µM | > 100 µM | > 100 µM | > 100 µM | > 100 µM | > 100 µM |
| O=C1CCCc2cc3c(cc21)CCC3C(=O)O (centres undefined) | > 100 µM | > 100 µM | > 100 µM | > 100 µM | > 100 µM | > 100 µM | > 100 µM | > 100 µM | > 100 µM | > 100 µM | > 100 µM | > 100 µM |
| O=c1c2cccnc2nc2ccc3c[nH][nH]c3c12 | > 10 µM | > 10 µM | > 10 µM | > 10 µM | > 10 µM | > 10 µM | > 10 µM | > 10 µM | > 10 µM | > 10 µM | > 10 µM | > 10 µM |
| O=C(O)CN1CCN(CC(=O)O)CCN(CC(=O)O)CCN(CC(=O)O)CC1 | > 100 µM | > 100 µM | > 100 µM | > 100 µM | > 100 µM | > 100 µM | > 100 µM | > 100 µM | > 100 µM | > 100 µM | > 100 µM | > 100 µM |
| O=C(Nc1nc(C23CC4CC(CC(C4)C2)C3)cs1)c1cc2cc(Br)cc(Br)c2oc1=O | > 100 µM | > 100 µM | > 100 µM | 79.7 µM | > 100 µM | > 100 µM | > 100 µM | > 100 µM | > 100 µM | > 100 µM | > 100 µM | 85.5 µM |
| COc1ccc(CN(CCc2c[nH]c3ccccc23)Cc2ccc(OC)cc2)cc1 |  | 32.9 µM | 20.5 µM | 63 µM | 10.5 µM | 8.77 µM | 10.8 µM | 18 µM | 8.29 µM | 14.3 µM | 3.14 µM | 15.1 µM |
| c1ccc2sc(C3(N4CCCCC4)CCCC3)cc2c1 | 19.8 µM | 24 µM | 22 µM | 33.4 µM | 17.6 µM | 24.8 µM | 30.3 µM | 24.3 µM |  | 29.7 µM | 31.7 µM | 30.6 µM |
| O=C1N=C(c2ccccc2)O/C1=C\c1ccccc1 | > 100 µM | > 100 µM |  | > 100 µM | > 100 µM | > 100 µM | > 100 µM | > 100 µM | > 100 µM | > 100 µM | > 100 µM | > 100 µM |
| CC(C)CCC[C@@H](C)C1CCC2[C@@H]3CCC4CC(CCC=C(c5cc(Cl)c(OC(=O)c6ccccc6)c(C(=O)O)c5)c5cc(Cl)c(OC(=O)c6ccccc6)c(C(=O)O)c5)CC[C@]4(C)C3CC[C@@]21C (some centres undefined) | > 100 µM | > 100 µM | > 100 µM | > 100 µM | > 100 µM | > 100 µM | > 100 µM |  | > 100 µM | > 100 µM | > 100 µM | > 100 µM |
| C=C(C)[C@@H]1CC[C@]2(C(=O)O)CC[C@]3(C)[C@H](CC[C@@H]4[C@@]5(C)CC[C@H](C(=O)/C=C/c6ccc(O)cc6)C(C)(C)[C@@H]5CC[C@]43C)[C@@H]12 | 9.53 µM | 18.1 µM | 24.4 µM | 36.2 µM | 20.8 µM | 39.5 µM | 65.1 µM | 94.6 µM | 46.8 µM | 16.5 µM | 20.3 µM |  |
| CSc1cc(Cl)c(C)cc1S(=O)(=O)NC(=O)NNc1ccc(F)c(Cl)c1 | > 100 µM | > 100 µM | > 100 µM | > 100 µM |  | > 100 µM | > 100 µM | > 100 µM | > 100 µM |  | > 100 µM | > 100 µM |
| CC1(O)/C(=N/O)CC2CC1C2(C)C (centres undefined) | > 100 µM | > 100 µM |  | > 100 µM | > 100 µM | > 100 µM | > 100 µM | > 100 µM | > 100 µM | > 100 µM |  | > 100 µM |
| CC(=O)O[C@H]1C(=O)[C@@]2(C)[C@H]([C@H](OC(=O)C3CCCCC3)[C@]3(O)C[C@H](OC(=O)[C@H](O)[C@@H](NC(=O)C4CCCCC4)C4CCCCC4)C(C)=C1C3(C)C)[C@]1(OC(C)=O)CO[C@@H]1C[C@@H]2O | 0.0266 µM | 2.27 µM | 25 µM | 0.0531 µM | 0.438 µM | 0.136 µM | 0.555 µM | 8.14 µM |  | 4.24 µM | 0.766 µM | 1.12 µM |
| CCOC(=O)CCC(NC(=O)c1ccc(Nc2nc3cc(C(F)(F)F)ccc3nc2-c2ccccc2)cc1)C(=O)OCC (centres undefined) | > 100 µM | > 100 µM | > 100 µM | > 100 µM | > 100 µM |  | > 100 µM | > 100 µM | > 100 µM | > 100 µM | > 100 µM | > 100 µM |
| COC12C=CC(CC1)C1C(=O)c3c(C)c(C)n(C)c3C(=O)C12 (centres undefined) | > 100 µM | > 100 µM | > 100 µM | > 100 µM | > 100 µM |  | > 100 µM | > 100 µM | > 100 µM | > 100 µM | > 100 µM | > 100 µM |
| C=C[C@H]1CN2CCc3c([nH]c4c([C@H]5CCCN5C)c(O)ccc34)[C@@H]2C[C@@H]1C[C@H]1c2[nH]c3ccccc3c2CCN1C | 2.83 µM | 3 µM | 3.34 µM | 4.59 µM | 3.56 µM | 3.52 µM | 2.25 µM | 2.97 µM | 3.53 µM | 3.54 µM |  | 2.4 µM |
